Test results as given in ChEMBL document CHEMBL3885881, “DrugMatrix”.

Organism: Rattus norvegicus
Assay type: toxicity, organism-based, Sprague-Dawley
Conditions: in vivo, 24 h, time 1 day, […]; for ABSOLUTE EOSINOPHIL / ABSOLUTE LYMPHOCYTE / ABSOLUTE MONOCYTE / ABSOLUTE SEGMENTED NEUTROPHIL / BASOPHIL / EOSINOPHIL / ERYTHROCYTE COUNT / HEMATOCRIT / HEMOGLOBIN / LEUKOCYTE COUNT / LYMPHOCYTE / MEAN CORPUSCULAR HEMOGLOBIN / MEAN CORPUSCULAR HEMOGLOBIN CONCENTRATION / MEAN CORPUSCULAR VOLUME / MONOCYTE / NEUTROPHIL / NUCLEATED RED BLOOD CELLS / PLATELET COUNT / ABSOLUTE BASOPHIL: tissue Blood; for ALANINE AMINOTRANSFERASE / ALBUMIN / ALKALINE PHOSPHATASE / ASPARTATE AMINOTRANSFERASE / BLOOD UREA NITROGEN / CARBON DIOXIDE / CHLORIDE / CHOLESTEROL / CREATININE / GLUCOSE / LACTATE DEHYDROGENASE / LIPASE / PHOSPHORUS / POTASSIUM / SODIUM / TOTAL BILIRUBIN / TOTAL PROTEIN / URIC ACID / CREATINE PHOSPHOKINASE: tissue Plasma
[1] = ip, 0 mg/kg, vehicle control, route intraperitoneal, dose level Control
[2] = ip, 50 mg/kg, route intraperitoneal, dose level High
[3] = po, 0 mg/kg, vehicle control, route oral GAVAGE, dose level Control
[4] = po, 15 mg/kg, route oral GAVAGE, dose level High

Description: DrugMatrix - Regimen: Single

With `ClC(Cl)=C(Cl)C(Cl)=C(Cl)Cl` [HEXACHLOROBUTADIENE] the “ABSOLUTE EOSINOPHIL” value [1] was 212 CELLS/uL, the “ABSOLUTE LYMPHOCYTE” value [1] was 10220.17 CELLS/uL and the “ABSOLUTE MONOCYTE” value [1] was 368.83 CELLS/uL. The “ABSOLUTE SEGMENTED NEUTROPHIL” value [1] was 1749 CELLS/uL, the BASOPHIL [1] was 0% and the EOSINOPHIL [1] was 1.67%. For the same compound, the “ERYTHROCYTE COUNT” value [1] was 5.74 x10E6/uL, the HEMATOCRIT [1] was 35.72% and the HEMOGLOBIN [1] was 13 G/DL. For the same compound, the “LEUKOCYTE COUNT” value [1] was 12.55 x10E3/uL, the LYMPHOCYTE [1] was 81.83% and the “MEAN CORPUSCULAR HEMOGLOBIN” value [1] was 22.65 pg. The “MEAN CORPUSCULAR HEMOGLOBIN CONCENTRATION” value [1] was 36.42 G/DL, the “MEAN CORPUSCULAR VOLUME” value [1] was 62.18 fL and the MONOCYTE [1] was 2.83%. For the same compound, the NEUTROPHIL [1] was 13.67%, the “NUCLEATED RED BLOOD CELLS” value [1] was 0 /100WBC and the “PLATELET COUNT” value [1] was 841.83 x10E3/uL. The “ALANINE AMINOTRANSFERASE” value [1] was 54 u/L, the ALBUMIN [1] was 4.15 G/DL and the “ALKALINE PHOSPHATASE” value [1] was 357.33 u/L. For the same compound, the “ASPARTATE AMINOTRANSFERASE” value [1] was 116 u/L, the “BLOOD UREA NITROGEN” value [1] was 14.17 mg/dL and the “CARBON DIOXIDE” value [1] was 34.5 mmol/L. For the same compound, the CHLORIDE [1] was 99.17 MEQ/L, the CHOLESTEROL [1] was 79.17 mg/dL and the CREATININE [1] was 0.2 mg/dL. The GLUCOSE [1] was 143.33 mg/dL, the “LACTATE DEHYDROGENASE” value [1] was 187.17 u/L and the LIPASE [1] was 8.83 u/L. For the same compound, the PHOSPHORUS [1] was 11.4 mg/dL, the POTASSIUM [1] was 6.36 MEQ/L and the SODIUM [1] was 143.32 MEQ/L. The “TOTAL BILIRUBIN” value [1] was 0.23 mg/dL, the “TOTAL PROTEIN” value [1] was 6.22 G/DL and the “URIC ACID” value [1] was 1.25 mg/dL. For the same compound, the “ABSOLUTE EOSINOPHIL” value [2] was 167 CELLS/uL, the “ABSOLUTE LYMPHOCYTE” value [2] was 9489 CELLS/uL and the “ABSOLUTE MONOCYTE” value [2] was 340.67 CELLS/uL. The “ABSOLUTE SEGMENTED NEUTROPHIL” value [2] was 2070 CELLS/uL, the BASOPHIL [2] was 0% and the EOSINOPHIL [2] was 1.33%. For the same compound, the “ERYTHROCYTE COUNT” value [2] was 5.16 x10E6/uL, the HEMATOCRIT [2] was 31.83% and the HEMOGLOBIN [2] was 11.8 G/DL. The “LEUKOCYTE COUNT” value [2] was 12.07 x10E3/uL, the LYMPHOCYTE [2] was 79.33% and the “MEAN CORPUSCULAR HEMOGLOBIN” value [2] was 22.87 pg. The “MEAN CORPUSCULAR HEMOGLOBIN CONCENTRATION” value [2] was 37.07 G/DL, the “MEAN CORPUSCULAR VOLUME” value [2] was 61.67 fL and the MONOCYTE [2] was 2.67%. For the same compound, the NEUTROPHIL [2] was 16.67%, the “NUCLEATED RED BLOOD CELLS” value [2] was 0 /100WBC and the “PLATELET COUNT” value [2] was 549 x10E3/uL. For the same compound, the “ALANINE AMINOTRANSFERASE” value [2] was 65.67 u/L, the ALBUMIN [2] was 4.2 G/DL and the “ALKALINE PHOSPHATASE” value [2] was 368.67 u/L. For the same compound, the “ASPARTATE AMINOTRANSFERASE” value [2] was 251.67 u/L, the “BLOOD UREA NITROGEN” value [2] was 15.33 mg/dL and the “CARBON DIOXIDE” value [2] was 30.33 mmol/L. It also gave a CHLORIDE [2] of 100.67 MEQ/L, a CHOLESTEROL [2] of 75.67 mg/dL and a CREATININE [2] of 0.22 mg/dL. For the same compound, the GLUCOSE [2] was 192.33 mg/dL, the “LACTATE DEHYDROGENASE” value [2] was 377.67 u/L and the LIPASE [2] was 9 u/L. It also gave a PHOSPHORUS [2] of 12.03 mg/dL, a POTASSIUM [2] of 5.96 MEQ/L and an SODIUM [2] of 144.97 MEQ/L. For the same compound, the “TOTAL BILIRUBIN” value [2] was 0.23 mg/dL, the “TOTAL PROTEIN” value [2] was 6.1 G/DL and the “URIC ACID” value [2] was 1.2 mg/dL.
Work on `CC(CCc1ccc(O)cc1)NCCc1ccc(O)c(O)c1` (centres undefined) [DOBUTAMINE] yielded an ABSOLUTE BASOPHIL [3] of 46.7 cells/µL, an ABSOLUTE EOSINOPHIL [3] of 130 cells/µL and an ABSOLUTE LYMPHOCYTE [3] of 8720 cells/µL. The ABSOLUTE MONOCYTE [3] was 140 cells/µL, the BASOPHIL [3] was 0.43% and the EOSINOPHIL [3] was 1.33%. The “ERYTHROCYTE COUNT” value [3] was 6.45 x10E6/uL, the HEMATOCRIT [3] was 42.2% and the HEMOGLOBIN [3] was 13.33 G/DL. The “LEUKOCYTE COUNT” value [3] was 10.59 x10E3/uL, the LYMPHOCYTE [3] was 82.13% and the “MEAN CORPUSCULAR HEMOGLOBIN” value [3] was 20.67 pg. The “MEAN CORPUSCULAR HEMOGLOBIN CONCENTRATION” value [3] was 31.6 G/DL, the “MEAN CORPUSCULAR VOLUME” value [3] was 65.4 fL and the MONOCYTE [3] was 1.37%. For the same compound, the NEUTROPHIL [3] was 14.3%, the “PLATELET COUNT” value [3] was 1048.67 x10E3/uL and the “ALANINE AMINOTRANSFERASE” value [3] was 44 u/L. The ALBUMIN [3] was 3.93 G/DL, the “ALKALINE PHOSPHATASE” value [3] was 551.33 u/L and the “ASPARTATE AMINOTRANSFERASE” value [3] was 97 u/L. The “BLOOD UREA NITROGEN” value [3] was 13.5 mg/dL, the “CARBON DIOXIDE” value [3] was 37.33 mmol/L and the CHLORIDE [3] was 102.33 MEQ/L. For the same compound, the CHOLESTEROL [3] was 83 mg/dL, the “CREATINE PHOSPHOKINASE” value [3] was 365.33 u/L and the CREATININE [3] was 0.4 mg/dL. The GLUCOSE [3] was 189 mg/dL, the “LACTATE DEHYDROGENASE” value [3] was 170.33 u/L and the LIPASE [3] was 10.67 u/L. The PHOSPHORUS [3] was 11.53 mg/dL, the POTASSIUM [3] was 5.63 MEQ/L and the SODIUM [3] was 144.33 MEQ/L. The “TOTAL BILIRUBIN” value [3] was 0.4 mg/dL, the “TOTAL PROTEIN” value [3] was 6.27 G/DL and the “URIC ACID” value [3] was 0.87 mg/dL. For the same compound, the ABSOLUTE BASOPHIL [4] was 16.7 cells/µL, the ABSOLUTE EOSINOPHIL [4] was 56.7 cells/µL and the ABSOLUTE LYMPHOCYTE [4] was 5150 cells/µL. The ABSOLUTE MONOCYTE [4] was 130 cells/µL, the BASOPHIL [4] was 0.23% and the EOSINOPHIL [4] was 1%. For the same compound, the “ERYTHROCYTE COUNT” value [4] was 6.18 x10E6/uL, the HEMATOCRIT [4] was 41.87% and the HEMOGLOBIN [4] was 13.57 G/DL. For the same compound, the “LEUKOCYTE COUNT” value [4] was 6.42 x10E3/uL, the LYMPHOCYTE [4] was 79.73% and the “MEAN CORPUSCULAR HEMOGLOBIN” value [4] was 21.9 pg. The “MEAN CORPUSCULAR HEMOGLOBIN CONCENTRATION” value [4] was 32.3 G/DL, the “MEAN CORPUSCULAR VOLUME” value [4] was 67.7 fL and the MONOCYTE [4] was 2.1%. The NEUTROPHIL [4] was 16.6%, the “PLATELET COUNT” value [4] was 1219 x10E3/uL and the “ALANINE AMINOTRANSFERASE” value [4] was 48 u/L. The ALBUMIN [4] was 3.87 G/DL, the “ALKALINE PHOSPHATASE” value [4] was 483.33 u/L and the “ASPARTATE AMINOTRANSFERASE” value [4] was 106 u/L. For the same compound, the “BLOOD UREA NITROGEN” value [4] was 13.67 mg/dL, the “CARBON DIOXIDE” value [4] was 36.33 mmol/L and the CHLORIDE [4] was 105 MEQ/L. For the same compound, the CHOLESTEROL [4] was 67.33 mg/dL, the “CREATINE PHOSPHOKINASE” value [4] was 728.67 u/L and the CREATININE [4] was 0.5 mg/dL. For the same compound, the GLUCOSE [4] was 182.33 mg/dL, the “LACTATE DEHYDROGENASE” value [4] was 183.67 u/L and the LIPASE [4] was 13.67 u/L. It also gave a PHOSPHORUS [4] of 12.43 mg/dL, a POTASSIUM [4] of 5.77 MEQ/L and an SODIUM [4] of 145 MEQ/L. For the same compound, the “TOTAL BILIRUBIN” value [4] was 0.33 mg/dL, the “TOTAL PROTEIN” value [4] was 6.17 G/DL and the “URIC ACID” value [4] was 1.47 mg/dL.
